US11413321B2, “Pharmaceutical composition for use in increasing hair, modifying scalp or skin, healing a wound, promoting osteogenesis, or modifying hair” (priority 2017, dated 2022)

What was measured:
Type in all cases: in vivo, Wistar rat
Itga4 = assay: Quantitative PCR of dorsal tissues after subcutaneous administration (Itga4); conditions: 20 μL per location into rat dorsal part; vs control without administration; FIG. 15
Experimental: (§1) 4.) Integrin subunit alpha 4 (Itga4), Rattus norvegicus: mRNA 3,736 bp NM 001107737.1 GI: 157819948 Next, a change in gene expression in tissues was examined. Three regions were set between the head and the tail of the dorsal part of a 12-week-old Wistar rat (male), and each region was divided between the left and the right of the backbone into two regions to set a total of six regions on the dorsal part. Milk or palmitic acid was injected in an amount of 20 μL per location at two locations in the vicinity of the center of each region. The distance between the two locations was 1 cm. The collected tissue fragments were frozen with liquid nitrogen, and stored at −80° C. […] Analysis of gene expression by quantitative PCR was performed in the following manner: Integrated DNA technologies, Inc (Skokie, Ill., USA) was requested to design and synthesize gene-specific primers and probes, and using PrimeTime Gene Expression Master Mix Reagent (Integrated DNA Technologies, Inc, Skokie, Ill., USA) and Rotor-Gene Q PCR Apparatus (QIAGEN GmbH, Hilden, Germany), PCR analysis was performed twice per gene per specimen to analyze the expression level of a target gene. […]

[1] = test system: full-thickness skin defect; assay: Wound healing score, circular full-thickness skin defect on the dorsal part; conditions: 20 μL administration liquid containing 1 mg of the fatty acid at each of four locations; FIG. 6C
Experimental: Formation of wounds: hair on the dorsal part of a 12-week-old Wistar rat was shaven with hair clippers, and a circular full-thickness skin defect with a diameter of 8 mm was produced on each of the left and right sides of the head and the left and right sides of the tail. The full-thickness skin defect was formed at four locations per body.
Administration of milk: 20 μL of milk was subcutaneously injected at each of four locations, namely upper, lower, left and right, in a place 4 mm away from the peripheral edge of the wound. As the milk, the commercially available bovine milk sterilized by heating (at 130 degrees for 2 seconds and 65 degrees for 30 minutes) as described in Example 1 was used.
Administration of fatty acid: As a fatty acid contained in the milk, sterile purified water (administration liquid) containing palmitic acid, stearic acid, myristic acid, linolenic acid, α-linoleic acid and oleic acid, respectively was administered. Here, the water was heated and administered for the saturated fatty acids, and the water was administered at room temperature for the unsaturated fatty acids. 20 μL of the administration liquid (containing 1 mg of the fatty acid) was subcutaneously administered at each of four locations, namely upper, lower, left and right, in a place 4 mm away from the peripheral edge of the wound.
Score 4: The reduction ratio of the area of the wound site is 70% or more.
Score 3: The reduction ratio of the area of the wound site is 50% or more and less than 70%.
Score 2: The reduction ratio of the area of the wound site is 20% or more and less than 50%.
Score 1: The reduction ratio of the area of the wound site is less than 20%.
The result was given as a ratio obtained by dividing the above score by the score for physiological saline.
Two tubes of 8 mL of commercially available milk sterilized at a low temperature (65 degrees for 30 minutes) were centrifuged by a centrifugal separator (2600 g×6 minutes), 2 mL of one fourth of the supernatant exclusive of a whip portion was collected from each tube, the two collected liquids were combined to obtain 4 mL of a liquid, and 4 mL of the resulting liquid was stirred, and used for experiments (hereinafter, the obtained sample is referred to as a “centrifuged sample”). The obtained centrifuged sample was administered to the wound site at a dosage of 20 μL per location in the same manner as described above. The results are shown in “Centrifuged Sample” in FIG. 6A.
Next, a wound healing-promoting effect of lactoferrin was examined. As lactoferrin, Nice rim essence 62971 (trade name) purchased from Lion Corporation was used and administered at one location in an amount of 20 μg or 60 μg in the same manner as described above. Specifically, the lactoferrin was ground, and then thoroughly dissolved in purified water. The lactoferrin concentration was adjusted so that an injection amount of 20 μL included the above administration amount. The result was given as a value obtained by dividing each of scores after seven days and after ten days by the score for the physiological saline administration group.

Cxcr4 = assay: Quantitative PCR of dorsal tissues after subcutaneous administration (Cxcr4); conditions: 20 μL per location into rat dorsal part; vs control without administration; FIG. 15
Experimental: as §1, with “3.) C—X—C motif chemokine receptor” for “4.) Integrin subunit alpha”, “(Cxcr4),” for “(Itga4),”, “1,726” for “3,736”, “022205.3” for “001107737.1”, “82617587” for “157819948”

CCCCCCCCCCCCCCCC(=O)O [palmitic acid]
expression level of Itga4 in tissues (Itga4): greatly increased | wound healing-promoting effect (score divided by the score for physiological saline) [1]: high promoting effect | expression level of Cxcr4 in tissues (Cxcr4): greatly increased
